Here are results for 15 compounds from PubChem BioAssay (NCI).

Where “and” joins values, the source holds several entries; their conditions need not be identical. Equal values may be shown once.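 Test compounds were applied to cells in 96-well plates for 48 hours at 5 doses. Here, GI50 denotes the concentration required for 50% inhibition of growth. TGI denotes the concentration required for complete inhibition of growth.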

Some test systems named below: CCRF-CEM leukemia; HOP-62 NSCLC; HOP-92 NSCLC; KM12 colon; LOX IMVI melanoma; M14 melanoma; MALME-3M melanoma; NCI-H226 lung; NCI/ADR-RES ovarian; PC-3 prostate; SF-268 CNS; UACC-257 melanoma; UACC-62 melanoma; RXF 393 renal; SF-539 CNS; SK-MEL-28 melanoma.
Test in all cases: NCI anticancer screen, dose series, 48 h

As for `CC(=O)OCCOCn1cnc2c(Cl)nc(Cl)nc21`, the TGI with CCRF-CEM leukemia came to 23.7 µM; with HOP-62 NSCLC, 36.4 µM; in the experiment on HOP-92 NSCLC, 3.37 µM; in the experiment on KM12 colon it was 44.1 µM; in the experiment on LOX IMVI melanoma it was 15.8 µM; in the experiment on M14 melanoma, 37.1 µM. For the same compound, the TGI in the experiment with MALME-3M melanoma came to 33.3 µM; with NCI-H226 lung it was 50.6 µM; in the experiment on NCI/ADR-RES ovarian, 57.5 µM; in the experiment with PC-3 prostate, 36.5 µM; in the experiment on SF-268 CNS it was 36.6 µM; in the experiment with UACC-257 melanoma, 36.8 µM. The TGI in the experiment on UACC-62 melanoma turned out to be 30.1 µM.

For `CC(=O)N[C@@H](Cc1ccc(O)cn1)C(=O)NCc1cccc(Cl)c1`, the TGI in the experiment on CCRF-CEM leukemia, in the experiment with HOP-62 NSCLC, in the experiment on KM12 colon, with LOX IMVI melanoma, with M14 melanoma and in the experiment on NCI-H226 lung was above 100 µM each time. Further, the TGI with NCI/ADR-RES ovarian, in the experiment with PC-3 prostate, in the experiment on RXF 393 renal, in the experiment on SF-268 CNS, in the experiment on SF-539 CNS and in the experiment with SK-MEL-28 melanoma was above 100 µM each time. The TGI with UACC-257 melanoma and in the experiment with UACC-62 melanoma was above 100 µM throughout.

For the compound `CSC1=N/C(=C\c2ccccc2)C(=O)N1CN1CCCCC1`, the TGI in the experiment on CCRF-CEM leukemia, in the experiment on HOP-62 NSCLC, with HOP-92 NSCLC, in the experiment with KM12 colon, in the experiment on LOX IMVI melanoma and with M14 melanoma was above 100 µM in each case. Moreover, the TGI in the experiment on MALME-3M melanoma, in the experiment with NCI-H226 lung, in the experiment with NCI/ADR-RES ovarian, with PC-3 prostate, in the experiment with SF-268 CNS and with SK-MEL-28 melanoma was above 100 µM in each case. In addition, in the experiment with UACC-62 melanoma, the TGI is above 100 µM.

For the compound `NC(CCC(=O)O)C(=O)N1CCN(c2nc(N3CCCC3)c3nc(Cl)c(NCc4ccccc4)nc3n2)CC1` (centres undefined), the TGI in the experiment on CCRF-CEM leukemia was determined as 26.2 µM; with HOP-62 NSCLC, 28.4 µM; in the experiment with HOP-92 NSCLC it was 32.2 µM; in the experiment on KM12 colon it was 40.3 µM; with LOX IMVI melanoma, 32.3 µM; in the experiment with M14 melanoma it was 22.6 µM. The TGI in the experiment with MALME-3M melanoma was 33.6 µM; with NCI-H226 lung it was 32.9 µM; in the experiment with NCI/ADR-RES ovarian, 46.2 µM; with PC-3 prostate it was 26.9 µM; with SF-268 CNS it was 29.1 µM; with SF-539 CNS, 28.5 µM. The values for the TGI in the experiment on SK-MEL-28 melanoma, in the experiment with UACC-257 melanoma and in the experiment on UACC-62 melanoma were 27.7 µM, 28.5 µM and 24.7 µM, respectively.

On to `c1ccc2c(c1)nc1n2CNC1`, for which the TGI in the experiment with CCRF-CEM leukemia, with HOP-62 NSCLC, in the experiment on HOP-92 NSCLC, in the experiment with KM12 colon, in the experiment on LOX IMVI melanoma and in the experiment on M14 melanoma was above 100 µM in each case. Moreover, the TGI with NCI/ADR-RES ovarian, with PC-3 prostate, in the experiment with RXF 393 renal, with SF-268 CNS, in the experiment on SF-539 CNS and with SK-MEL-28 melanoma was above 100 µM each time. The TGI in the experiment with UACC-257 melanoma and in the experiment on UACC-62 melanoma was above 100 µM in each case.

Regarding `COc1cc2c(cc1OC)CCc1cc(OC)c(OC)cc1CC2`, the TGI with CCRF-CEM leukemia, in the experiment with HOP-62 NSCLC, with HOP-92 NSCLC, in the experiment with KM12 colon, in the experiment on LOX IMVI melanoma and in the experiment with M14 melanoma was above 100 µM in each case. Also, the TGI in the experiment with MALME-3M melanoma, in the experiment on NCI-H226 lung, in the experiment on NCI/ADR-RES ovarian, with PC-3 prostate, in the experiment with SF-539 CNS and in the experiment on SK-MEL-28 melanoma was above 100 µM in each case. For the same compound, the TGI with UACC-257 melanoma and with UACC-62 melanoma was above 100 µM throughout.

On to `CC(C)=CC(=O)C[C@H]1C(=O)O[C@@H]2C[C@H]3C(C)=CC(=O)[C@@H](O)[C@]3(C)[C@H]3[C@@]4(O)OC[C@]32[C@@H]1[C@@H](C)[C@H]4O`, for which the TGI with CCRF-CEM leukemia is 0.0918 µM; in the experiment on HOP-62 NSCLC it was 1.8 µM; with HOP-92 NSCLC, 0.328 µM; with KM12 colon, 12.8 µM; with M14 melanoma, 0.115 µM; with MALME-3M melanoma, 0.0619 µM. Besides, the TGI in the experiment on NCI-H226 lung is below 0.0156 µM; in the experiment with NCI/ADR-RES ovarian, 11 µM; in the experiment with PC-3 prostate it was 0.241 µM; in the experiment with SF-268 CNS, 0.21 µM; in the experiment on SK-MEL-28 melanoma, 0.172 µM; in the experiment with UACC-257 melanoma, 0.608 µM. This compound also yielded a TGI with UACC-62 melanoma of 0.443 µM.

On to `COc1cc(OC)c2c(=O)c(OC)c(-c3ccc4c(c3)OCO4)oc2c1`, for which the TGI with CCRF-CEM leukemia is above 100 µM; with HOP-62 NSCLC, 74.6 µM; with KM12 colon, above 100 µM; in the experiment on LOX IMVI melanoma, 48.8 µM; in the experiment with M14 melanoma, above 100 µM; in the experiment on MALME-3M melanoma, above 100 µM. Further, the TGI is above 100 µM in the experiment on NCI-H226 lung; above 100 µM in the experiment on NCI/ADR-RES ovarian; above 100 µM in the experiment with PC-3 prostate; 72.6 µM with RXF 393 renal; 66.6 µM in the experiment on SF-268 CNS; 44.1 µM with SF-539 CNS. Besides, the TGI with SK-MEL-28 melanoma is above 100 µM; in the experiment with UACC-257 melanoma, above 100 µM; in the experiment on UACC-62 melanoma it was 72 µM.

In the case of `O=C(O)[C@@H]1CSCN1C(=O)[C@@H]1CCC(=S)N1`, the TGI in the experiment with CCRF-CEM leukemia, in the experiment on HOP-62 NSCLC, in the experiment with KM12 colon, with LOX IMVI melanoma, in the experiment with M14 melanoma and with MALME-3M melanoma was above 100 µM each time. The TGI in the experiment on NCI-H226 lung, in the experiment on NCI/ADR-RES ovarian, with PC-3 prostate, with RXF 393 renal, in the experiment on SF-268 CNS and with SF-539 CNS was above 100 µM each time. Also, the TGI with SK-MEL-28 melanoma and with UACC-257 melanoma was above 100 µM each time.

On to `NNc1nncc2n[nH]nc12`, for which the TGI in the experiment with CCRF-CEM leukemia, in the experiment on HOP-62 NSCLC, with KM12 colon, in the experiment on M14 melanoma, in the experiment on NCI-H226 lung and in the experiment on NCI/ADR-RES ovarian was above 100 µM each time. In addition, the TGI with PC-3 prostate, with RXF 393 renal, in the experiment with SF-268 CNS, in the experiment with SF-539 CNS, in the experiment on SK-MEL-28 melanoma and with UACC-257 melanoma was above 100 µM in each case. Further, the TGI with UACC-62 melanoma is above 100 µM.

Turning to `CCc1c(C)c(C#N)c(=S)n(C2OC(COC(C)=O)C(OC(C)=O)C(OC(C)=O)C2OC(C)=O)c1C` (centres undefined), the TGI in the experiment on CCRF-CEM leukemia was above 100 µM; in the experiment with HOP-62 NSCLC it was > 100 µM and 21.8 µM; in the experiment with KM12 colon, above 100 µM; in the experiment on LOX IMVI melanoma it was above 100 µM; in the experiment with M14 melanoma, above 100 µM; with MALME-3M melanoma, above 100 µM. The TGI was above 100 µM with NCI-H226 lung; above 100 µM in the experiment with NCI/ADR-RES ovarian; > 100 µM and 27.9 µM in the experiment on PC-3 prostate; > 100 µM and 29.1 µM in the experiment with RXF 393 renal; above 100 µM in the experiment with SF-268 CNS; above 100 µM in the experiment with SF-539 CNS. Besides, the TGI in the experiment with SK-MEL-28 melanoma, with UACC-257 melanoma and with UACC-62 melanoma was above 100 µM each time. Besides, the GI50 is 45.4 µM and 5.33 µM in the experiment with HOP-62 NSCLC; > 100 µM and 38.2 µM in the experiment with NCI-H226 lung; > 100 µM and 31.4 µM in the experiment with SF-539 CNS; > 100 µM and 47.6 µM in the experiment on UACC-62 melanoma.

On to `O=C1NCCCNCCCNCCCNC(=O)c2cccc1n2`, for which the TGI in the experiment with CCRF-CEM leukemia, in the experiment with HOP-62 NSCLC, in the experiment on KM12 colon, with LOX IMVI melanoma, in the experiment on M14 melanoma and in the experiment with MALME-3M melanoma was above 100 µM in each case. The TGI with NCI-H226 lung, in the experiment with NCI/ADR-RES ovarian, in the experiment on PC-3 prostate, in the experiment on RXF 393 renal, in the experiment with SF-268 CNS and with SF-539 CNS was above 100 µM each time. For the same compound, the TGI with SK-MEL-28 melanoma, in the experiment on UACC-257 melanoma and with UACC-62 melanoma was above 100 µM throughout.

For the compound `CCn1c(SCC(=O)NNC(=S)Nc2ccc(C)cc2)nc2ccccc2c1=O`, the TGI in the experiment on CCRF-CEM leukemia, with HOP-62 NSCLC, with KM12 colon, in the experiment on LOX IMVI melanoma, in the experiment on M14 melanoma and with MALME-3M melanoma was above 100 µM in each case. For the same compound, the TGI in the experiment on NCI-H226 lung, with NCI/ADR-RES ovarian, in the experiment on PC-3 prostate, with RXF 393 renal, with SF-268 CNS and in the experiment with SF-539 CNS was above 100 µM in each case. For the same compound, the TGI in the experiment on SK-MEL-28 melanoma, in the experiment with UACC-257 melanoma and in the experiment with UACC-62 melanoma was above 100 µM throughout.

For `N#Cc1nc(C2=C(Cl)c3ccccc3OC2)[nH]c1C#N`, the TGI with CCRF-CEM leukemia is above 100 µM; in the experiment on HOP-92 NSCLC, 31 µM; in the experiment with KM12 colon, 71.9 µM; in the experiment with LOX IMVI melanoma, 45.6 µM; with M14 melanoma, 34.2 µM; in the experiment on NCI/ADR-RES ovarian, above 100 µM. The TGI is 71.7 µM in the experiment on PC-3 prostate; 38.8 µM in the experiment on RXF 393 renal; above 100 µM in the experiment on SF-268 CNS; 45.2 µM in the experiment on SF-539 CNS; 56.8 µM in the experiment with SK-MEL-28 melanoma; 64.3 µM in the experiment on UACC-62 melanoma.

`COC(=O)C(COC(C)=O)NC(=O)/C=C/c1ccc(O)c(OC(C)=O)c1` (centres undefined): the TGI in the experiment with CCRF-CEM leukemia, in the experiment with HOP-62 NSCLC, in the experiment on HOP-92 NSCLC, in the experiment on KM12 colon, with LOX IMVI melanoma and with M14 melanoma was above 100 µM each time. For the same compound, the TGI is above 100 µM with MALME-3M melanoma; above 100 µM in the experiment on NCI-H226 lung; above 100 µM in the experiment with NCI/ADR-RES ovarian; above 100 µM with PC-3 prostate; above 100 µM with SF-268 CNS; 53.9 µM in the experiment on SF-539 CNS. The TGI with SK-MEL-28 melanoma, in the experiment on UACC-257 melanoma and in the experiment on UACC-62 melanoma was above 100 µM in each case.
